Reference: paper PMC6376178 (Theranostics, 2019)

Molecular target: T1, USP5 (ubiquitin-specific protease 5) (Homo sapiens, UniProt P45974)
T1 sequence (P45974 2-858): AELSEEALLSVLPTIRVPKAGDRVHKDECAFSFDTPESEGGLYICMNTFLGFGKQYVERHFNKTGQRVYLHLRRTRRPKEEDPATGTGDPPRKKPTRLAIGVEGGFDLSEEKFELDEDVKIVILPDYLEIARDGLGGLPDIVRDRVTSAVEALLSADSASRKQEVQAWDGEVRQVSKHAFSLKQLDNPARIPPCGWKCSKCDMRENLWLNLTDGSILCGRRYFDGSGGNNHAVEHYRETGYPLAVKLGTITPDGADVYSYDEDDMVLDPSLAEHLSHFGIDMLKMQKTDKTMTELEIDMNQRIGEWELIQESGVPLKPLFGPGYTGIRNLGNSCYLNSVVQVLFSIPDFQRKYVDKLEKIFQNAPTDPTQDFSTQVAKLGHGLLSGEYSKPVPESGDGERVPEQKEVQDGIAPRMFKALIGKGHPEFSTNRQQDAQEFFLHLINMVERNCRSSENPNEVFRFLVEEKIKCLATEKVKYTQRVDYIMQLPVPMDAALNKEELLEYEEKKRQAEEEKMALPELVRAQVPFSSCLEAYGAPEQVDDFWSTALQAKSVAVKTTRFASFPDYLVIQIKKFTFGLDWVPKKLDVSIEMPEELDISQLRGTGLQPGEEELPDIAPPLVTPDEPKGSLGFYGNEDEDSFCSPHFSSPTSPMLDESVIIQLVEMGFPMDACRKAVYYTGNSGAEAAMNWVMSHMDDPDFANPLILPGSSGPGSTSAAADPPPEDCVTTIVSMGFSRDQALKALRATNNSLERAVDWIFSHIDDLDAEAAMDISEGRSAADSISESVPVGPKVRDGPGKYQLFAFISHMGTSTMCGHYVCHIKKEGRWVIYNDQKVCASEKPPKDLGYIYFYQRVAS
Assay: SPR
Assay type: binding

A Kd of 25.1 µM was found for `COc1ccc(-c2coc3cc(O)ccc3c2=O)cc1` [Formononetin] in this work.
